Entries after “also recorded” stand apart in the source; their conditions may differ.
What was measured:
[1] = test system: C57BL/6J mice, photo-oxidative damage (PD); assay: Photo-oxidative damage (PD) model of retinal degeneration, intravitreal injection; assay type: in vivo, mouse; settings: for ONL thickness (OCT): 1-2 mm and 2-3 mm from the optic nerve, about 1 mg/ml in vitreous; for ONL thickness (OCT) / a-wave and b-wave ERG responses: versus controls; for a-wave and b-wave ERG responses: scotopic; for IBA1+ macrophages in the outer retina: versus control
Text: All experiments conducted were in accordance with the ARVO Statement for Use of Animals in Ophthalmic and Vision Research, and with approval from the ANU Animal Experimentation Ethics Committee (AEEC, protocol #A2014/56). C57BL/6J mice aged 60 post-natal days were used in this study. Animals were born, reared and held under dim light conditions (5 lux) prior to photo-oxidative damage.
In vivo cross-sectional and fundus images of the mouse retina were acquired using Optical Coherence Tomography (OCT).
Intravitreal injections were performed on C57BL/6J mice aged 60 post-natal days. Treatments included exposure to FA or TA dissolved in Suspension (comprised of 0.5% w/v carboxymethyl cellulose and 0.4% v/v Tween 80). The final concentration of drug in the vitreous chamber is estimated to be as 1 mg/ml.
Age-matched C57BL/6J mice (60 post-natal days) were exposed to continuous 100K lux white LED light for 5 days with access to food and water ad libitum. During this time, 1% atropine sulphate (Minims 1% atropine sulphate eye drops; Bausch and Lomb, USA) was administered to both eyes twice daily to dilate the pupils. Animals were subsequently euthanised with carbon dioxide (CO2).
Electroretinography (ERG) was used to assess the retinal function response of rodents to full-field flash stimuli under scotopic conditions. Dim-reared control and photo-oxidative damaged animals were used, using known methods.
Animals were dark-adapted overnight before the commencement of ERG experiments. Animals were anaesthetised as previously described, and all retinal recordings were undertaken in a dark room with minimal red light source.
Terminal deoxynucleotidyl transferase (Tdt) dUTP nick end labelling (TUNEL) is an established technique used to detect apoptotic and necrotic cells.
The retina was evenly divided into 8 quadrants. Each quadrant was viewed using a confocal microscope (LSM 5, Zeiss, Germany) and TUNEL^+ and IBA1^+ cells were identified and counted. Data were graphed and analysed using Prism 6 software (GraphPad Software, CA, USA).

[2] = test system: Ccl2, Il-6, Il-8 expression in MIO-M1 cells; assay: IL-1β stimulation of MIO-M1 cells, cytokine gene expression by QRT-PCR; assay type: cell-based, human; settings: 1 μg/μl steroid, 1 ng/μl IL-1β, 12 h, versus IL-1β alone
Text: (§1) The immortalised retinal cells used were as follows: MIO-M1 cells (Muller cell-derived; Müller 1 Moorefields, Institute of Ophthalmology, Dr A. Limb, Institute of Ophthalmology, University College, UK); ARPE19 (RPE-derived; ATCC CRL-2302, American Tissue Culture Collection, VA, USA); and 661W cells (photoreceptor-like derived; kindly gifted by Dr Muayyad R. Al-Ubaidi, Department of Cell Biology, University of Oklahoma Health Sciences Centre, Oklahoma City, OK, USA). Cells were authenticated and validated from Cell Bank Australia.
IL-1β and TNF-α were administered to MIO-M1 cells to initiate an inflammatory response in order to test the anti-inflammatory properties of the selected corticosteroids. MIO-M1 cells were grown to a cell density of 50,000 cells per well in a 24 well plate using growth media and foetal bovine serum as described (Section 2.1.1). MIO-M1 cells were challenged with either 1 ng/μl of IL-1β or TNF-α (R&D Systems, MN, USA). Experimental wells were treated with either 1 μg/μl FA, TA or Dexamethasone. […]
Following purification of RNA, cDNA was synthesized using the Bioline Tetro kit (Bioline, Australia) as per the manufacturer's instructions. Quantitative Real Time Polymerase Chain Reaction (QRT-PCR) was undertaken to profile gene expression changes in animal and cell culture samples. […] Data was analysed using the QuantStudio 12K Flex Software (Applied Biosystems, USA).

ARPE19 cells = assay: MTT assay, cell viability of ARPE19 cells; assay type: cell-based, human
Text: as §1
(§2) The immortalised retinal cell lines MIO-M1, 661W and ARPE19 were used to undertake the MTT assay to assess cell metabolic activity, based on the cell's availability of NAPDH. Treatments included exposure to one of FA (10-0.01 μg/μl, provided by Professor Ben Boyd, Monash University, Australia), TA (10-0.01 μg/p, Honeywell, USA) and Dexamethasone (10-0.0001 μg/μl, Sigma-Aldrich, MO, USA). All corticosteroids used in vitro were dissolved in 20% dimethyl sulfoxide (DMSO) (Sigma-Aldrich, MO, USA) and ultrapure endotoxin 0.1M PBS (Thermo Fisher Scientific, MA, USA). At the 12-hour time point following addition of the corticosteroid, 10p of MTT reagent (Roche, Switzerland) was added to each well. To protect against light, plates were wrapped in foil and stored in the dark at 37° C. for 4 hours at 5.0% CO2. Cells were monitored using a bright field Zeiss Axiovert 200 inverted microscope (Carl Zeiss Meditec, Dublin, CA. USA) for formation of insoluble purple formazan precipitate crystals in viable cells. Subsequently 100p of MTT solubilisation solution was added and once again incubated in darkness at 37° C., 5.0% CO2 for 24 hours. Quantification of the MTT assay was performed by measuring the absorbance at 570 nm using Tecan Infinite® 200 PRO (Tecan, Mannedorf, Switzerland).

[3] = test system: Il-1b-stimulated MIO-M1 cells; assay: Co-incubation with selective receptor antagonists in Il-1b-stimulated MIO-M1 cells; assay type: cell-based, human; settings: stimulated Muller (MIO-M1) cells, receptor blockers
Experimental: FIG. 3 Contribution of glucocorticoid and mineralocorticoid receptor signalling to the anti-inflammatory effect of FA in vitro.
IL-1β and TNF-α were administered to MIO-M1 cells to initiate an inflammatory response in order to test the anti-inflammatory properties of the selected corticosteroids. MIO-M1 cells were grown to a cell density of 50,000 cells per well in a 24 well plate using growth media and foetal bovine serum as described (Section 2.1.1). MIO-M1 cells were challenged with either 1 ng/μl of IL-1β or TNF-α (R&D Systems, MN, USA). Experimental wells were treated with either 1 μg/μl FA, TA or Dexamethasone. Twelve hours post addition, growth medium was removed from each well and replaced with 860 μl of TRIzol (Thermo Fisher Scientific, MA, USA), agitated approximately 20 times and then placed in a clean 1.5 ml Eppendorf tube to extract ribonucleic acid (RNA).
Following purification of RNA, cDNA was synthesized using the Bioline Tetro kit (Bioline, Australia) as per the manufacturer's instructions. Quantitative Real Time Polymerase Chain Reaction (QRT-PCR) was undertaken to profile gene expression changes in animal and cell culture samples. TaqMan hydrolysis probes (Applied Biosystems, USA) and Gene Expression Master Mix (Applied Biosystems, USA) were used. A clear 384 well plate (Applied Biosystems, USA) was used with each biological sample plated in duplicate. A reaction mixture per sample was set up and included 0.5 μl cDNA, 4 μl Rnase Free Water, 5 μl Gene Expression Master Mix and 0.5 μl Taqman Primer Probe (Thermo Fisher Scientific), as listed in Table 2.5. The amplification of each sample was undertaken using a QuantStudio 12K Flex QRT-PCR machine (Applied Biosystems, USA). GAPDH was used as the reference gene using the comparative cycle threshold (Ct) method (ΔΔCt), as it is known not to change expression following retinal photo-oxidative damage. Data was analysed using the QuantStudio 12K Flex Software (Applied Biosystems, USA).

MIO-M1 cells = assay: MTT assay, cell viability of MIO-M1 cells; assay type: cell-based, human
Text: as §1, §2

661W cells = assay: MTT assay, cell viability of 661W cells; assay type: cell-based, human
Text: as §1, §2

[4] = 5 days PD, intravitreal, listed as Suspension+FA
[5] = 10-0.01 μg/μl, 12 h, compared to DMSO-only group

SMILES: CC(=O)OCC(=O)[C@@]1(O)CC[C@H]2[C@@H]3CCC4=CC(=O)CC[C@]4(C)[C@@]3(F)[C@@H](O)C[C@@]21C [FA, 9-α-Fluoro-11 β. 17 α, 21-trihydroxy-4-pregnene-3, 20 dione acetate]
- ONL thickness (OCT) ([1]; 5 days PD, intravitreal): significant preservation
- ONL thickness (OCT) [1, 4]: significantly greater
- a-wave and b-wave ERG responses ([1]; 5 days PD, intravitreal): significantly larger
- a-wave and b-wave ERG responses [1, 4]: significantly higher
- IBA1+ macrophages in the outer retina ([1]; 5 days PD, intravitreal): significant reduction
- IBA1+ macrophages in the outer retina [1, 4]: significant decrease
- TUNEL+ photoreceptors (outer retina) ([1]; 5 days PD, intravitreal, versus vehicle/controls): significantly fewer
- photoreceptor survival in PD ([1]; intravitreal injection, mice): improves photoreceptor survival
- Ccl2, Il-6, and Il-8 expression after IL-1β stimulation [2]: drastically reduced; also recorded: suppressed to near baseline levels
- viability of ARPE19 cells at 1 μg/μl (ARPE19 cells; 1 μg/μl): does not significantly alter cell viability
- viability of ARPE-19 cells (MTT assay) (ARPE19 cells; [5]): do not induce toxicity; also recorded: no significant effect
- receptor mediating the impact on expression of CCL2, IL-6 and IL-8 [3]: mediated through the glucocorticoid receptor; also recorded: dependent on glucocorticoid receptor signalling
- viability of MIO-M1 cells at 1 μg/μl (MIO-M1 cells; 1 μg/μl): does not significantly alter cell viability
- viability of MIO-M1 cells at the highest concentration (MIO-M1 cells; 10 ug/uL, compared to DMSO-only group): slight reduction
- viability of MIO-M1 cells (MTT assay) (MIO-M1 cells; [5]): do not induce toxicity; also recorded: no significant effect
- viability of 661W cells at 1 μg/μl (661W cells; 1 μg/μl): does not significantly alter cell viability
- viability of 661W cells (MTT assay) (661W cells; [5]): do not induce toxicity; also recorded: no significant effect
